Experimental data from patent publication US11584763B2, “Chromenopyridine derivatives as phosphatidylinositol phosphate kinase inhibitors” (HIBERCELL, INC., priority 2017, dated 2023).

What was measured:
PIP4K2B = molecular target: T1, PIP4K2B (Homo sapiens, UniProt P78356); assay: Trans-FI P kinase assay PIP4K2B (PIP4KtypeIIB inhibition assay); type: biochemical; conditions: compounds listed under IC50 bin headings; 100 uM GTP; read-out: Trans-FI P kinase assays: PIP4K2B IC50
T1 construct: made in house; host or cells: E. coli
T1 sequence (P78356 1-416): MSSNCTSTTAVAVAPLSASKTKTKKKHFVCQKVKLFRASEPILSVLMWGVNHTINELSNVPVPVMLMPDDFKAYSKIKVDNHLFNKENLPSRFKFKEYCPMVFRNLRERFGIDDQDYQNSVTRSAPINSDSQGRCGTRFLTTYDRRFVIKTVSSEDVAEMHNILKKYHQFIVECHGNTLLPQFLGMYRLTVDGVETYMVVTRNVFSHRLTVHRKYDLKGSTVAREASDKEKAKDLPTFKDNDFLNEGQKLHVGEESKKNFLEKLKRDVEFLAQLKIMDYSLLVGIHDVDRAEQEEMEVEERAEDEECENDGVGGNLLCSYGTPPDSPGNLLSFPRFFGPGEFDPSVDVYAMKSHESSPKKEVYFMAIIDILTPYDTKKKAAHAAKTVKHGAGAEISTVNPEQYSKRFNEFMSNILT
Summary of the method: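 GST-tagged human PIP4K2B (5 nM, E. coli-expressed) preincubated 1 h at 27 C with compound (top 4.8 uM, 5% DMSO), then reacted 2 h with 100 uM GTP and 80 uM PI5P/DOPE vesicles in HEPES pH 7.3, MgCl2, Triton X-100. GDP detected by Transcreener FI fluorescence via calibration curve; IC50 from % activity vs log[inhibitor].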

PIP4K 2A = molecular target: T2, PIP4K 2A (Homo sapiens, UniProt P48426); assay: ADP-glo kinase assay PIP4K 2A; type: biochemical; parameters: 4 nM PIP4K2A (full length protein, SignalChem); purchased SignalChem; conditions: compounds listed under IC50 bin headings
T2 sequence (P48426 1-406): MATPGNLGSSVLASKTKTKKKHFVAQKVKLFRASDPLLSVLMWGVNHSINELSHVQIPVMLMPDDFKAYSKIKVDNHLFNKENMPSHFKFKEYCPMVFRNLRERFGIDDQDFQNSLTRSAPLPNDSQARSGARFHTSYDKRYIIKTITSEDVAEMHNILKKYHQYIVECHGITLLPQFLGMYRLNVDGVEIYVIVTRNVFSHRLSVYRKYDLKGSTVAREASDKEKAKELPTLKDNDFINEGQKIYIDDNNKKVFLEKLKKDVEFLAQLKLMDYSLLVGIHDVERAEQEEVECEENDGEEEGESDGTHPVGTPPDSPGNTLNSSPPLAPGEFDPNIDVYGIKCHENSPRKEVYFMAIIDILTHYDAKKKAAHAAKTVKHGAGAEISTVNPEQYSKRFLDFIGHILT
Summary of the method: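 Full-length PIP4K2A was pre-incubated 15 min at RT with compound in 20 mM MOPS pH 7.2, 25 mM MgCl2, 0.005% Tween 20. The enzyme mix held 4 nM kinase and 100 μM PI(5)P diC8, and ATP was added from a 60 μM solution. After 1 h at RT, ADP-Glo luminescence gave % inhibition versus DMSO, fitted to IC50 over 10 threefold dilutions.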

With `CC1Oc2cc(N3CCCC3=O)ccc2-c2cnc(Nc3cncc(NC(=O)c4ccc5c(c4)COB5O)c3)cc21` (stereo not drawn) [Example 116, 1-hydroxy-N-(5-((5-methyl-8-(2-oxopyrrolidin-1-yl)-5H-chromeno[4,3-c]pyridin-3-yl)amino)pyridin-3-yl)-1,3-dihydrobenzo[c][1,2]oxaborole-5-carboxamide] the IC50 (PIP4K2B) was 10 to 100 nM and the IC50 (PIP4K 2A) was ≤ 1 nM.

`CC1(C)Oc2cc(N3CCCC3=O)ccc2-c2cnc(Nc3cnc4c(c3)N3C(=O)CC[C@@H]3CO4)cc21` [Example 183, (R)-2-((5,5-dimethyl-8-(2-oxopyrrolidin-1-yl)-5H-chromeno[4,3-c]pyridin-3-yl)amino)-6,6a,7,8-tetrahydro-9H-pyrido[2,3-b]pyrrolo[1,2-d][1,4]oxazin-9-one] showed an IC50 (PIP4K2B) of 1 to 10 nM and an IC50 (PIP4K 2A) of 1 to 10 nM.

For `CC1Oc2cc(N3CCCC3=O)ccc2-c2cnc(Nc3cnc4c(c3)N3C(=O)C(C)(C)C[C@H]3CO4)cc21` (stereo partly drawn) [Example 156, (6aS)-8,8-dimethyl-2-((5-methyl-8-(2-oxopyrrolidin-1-yl)-5H-chromeno[4,3-c]pyridin-3-yl)amino)-6,6a,7,8-tetrahydro-9H-pyrido[2,3-b]pyrrolo[1,2-d][1,4]oxazin-9-one], the IC50 (PIP4K2B) was 1 to 10 nM and the IC50 (PIP4K 2A) was ≤ 1 nM.

With `CC1Oc2cc(N3CCCC3=O)ccc2-c2cnc(Nc3cncc(NC(=O)c4cccc5[nH]cnc45)c3)cc21` (stereo not drawn) [Example 196, N-(5-((5-methyl-8-(2-oxopyrrolidin-1-yl)-5H-chromeno[4,3-c]pyridin-3-yl)amino)pyridin-3-yl)-1H-benzo[d]imidazole-7-carboxamide] the IC50 (PIP4K2B) was 10 to 100 nM and the IC50 (PIP4K 2A) was 1 to 10 nM.

Molecule `O=C1CCCN1c1ccc2c(c1)OCc1cc(Nc3cnc4c(c3)OCCO4)ncc1-2` [Example 163, 1-(3-((2,3-dihydro-[1,4]dioxino[2,3-b]pyridin-7-yl)amino)-5H-chromeno[4,3-c]pyridin-8-yl)pyrrolidin-2-one] has an IC50 (PIP4K2B) of 10 to 100 nM and an IC50 (PIP4K 2A) of 1 to 10 nM.

`CC1Oc2cc(N3CCCC3=O)ccc2-c2cnc(Nc3cnc4c(c3)N3C(=O)CC[C@@H]3CO4)cc21` (stereo partly drawn) [Example 180, (6aR)-2-((5-methyl-8-(2-oxopyrrolidin-1-yl)-5H-chromeno[4,3-c]pyridin-3-yl)amino)-6,6a,7,8-tetrahydro-9H-pyrido[2,3-b]pyrrolo[1,2-d][1,4]oxazin-9-one] was tested, and the IC50 (PIP4K2B) was 1 to 10 nM and the IC50 (PIP4K 2A) was ≤ 1 nM.

For `CC1Oc2cc(N3CCCC3=O)c(F)cc2-c2cnc(Nc3cnc4c(c3)N3C(=O)C(C)(C)C[C@H]3CO4)cc21` (stereo partly drawn) [Example 153, (6aS)-2-((9-fluoro-5-methyl-8-(2-oxopyrrolidin-1-yl)-5H-chromeno[4,3-c]pyridin-3-yl)amino)-8,8-dimethyl-6,6a,7,8-tetrahydro-9H-pyrido[2,3-b]pyrrolo[1,2-d][1,4]oxazin-9-one], the IC50 (PIP4K2B) was 1 to 10 nM and the IC50 (PIP4K 2A) was ≤ 1 nM.

For `CN(C)C/C=C/C(=O)Nc1cccc(CCC(=O)Nc2cncc(Nc3cc4c(cn3)-c3ccc(N5CCCC5=O)cc3OC4(C)C)c2)c1` [Example 199, (E)-N-(3-(3-((5-((5,5-dimethyl-8-(2-oxopyrrolidin-1-yl)-5H-chromeno[4,3-c]pyridin-3-yl)amino)pyridin-3-yl)amino)-3-oxopropyl)phenyl)-4-(dimethylamino)but-2-enamide], the IC50 (PIP4K2B) was 10 to 100 nM and the IC50 (PIP4K 2A) was 1 to 10 nM.

With `COCCC(=O)N1CCN(c2cncc(Nc3cc4c(cn3)-c3ccc(N5CCCC5=O)cc3OC4C)c2)CC1` (stereo not drawn) [Example 169, 1-(3-((5-(4-(3-methoxypropanoyl)piperazin-1-yl)pyridin-3-yl)amino)-5-methyl-5H-chromeno[4,3-c]pyridin-8-yl)pyrrolidin-2-one] the IC50 (PIP4K2B) was 10 to 100 nM and the IC50 (PIP4K 2A) was 1 to 10 nM.

For `CC1C[C@H]2COc3ncc(Nc4cc5c(cn4)-c4cc(F)c(N6CCCC6=O)cc4OC5C)cc3N2C1=O` (stereo partly drawn) [Example 152, (6aS)-2-((9-fluoro-5-methyl-8-(2-oxopyrrolidin-1-yl)-5H-chromeno[4,3-c]pyridin-3-yl)amino)-8-methyl-6,6a,7,8-tetrahydro-9H-pyrido[2,3-b]pyrrolo[1,2-d][1,4]oxazin-9-one], the IC50 (PIP4K2B) was 1 to 10 nM and the IC50 (PIP4K 2A) was ≤ 1 nM.

`CC1Oc2cc(N3CCCC3=O)ccc2-c2cnc(Nc3cncc(NC(=O)c4ccccn4)c3)cc21` (stereo not drawn) [Example 112, N-(5-((5-methyl-8-(2-oxopyrrolidin-1-yl)-5H-chromeno[4,3-c]pyridin-3-yl)amino)pyridin-3-yl)picolinamide] gave an IC50 (PIP4K2B) of 10 to 100 nM and an IC50 (PIP4K 2A) of 1 to 10 nM.

Work on `CC1Oc2cc(N3CCCC3=O)ccc2-c2cnc(Nc3cncc(NC(=O)c4cc5ccccn5n4)c3)cc21` (stereo not drawn) [Example 140, N-(5-((5-methyl-8-(2-oxopyrrolidin-1-yl)-5H-chromeno[4,3-c]pyridin-3-yl)amino)pyridin-3-yl)pyrazolo[1,5-a]pyridine-2-carboxamide] yielded an IC50 (PIP4K2B) of 10 to 100 nM and an IC50 (PIP4K 2A) of 1 to 10 nM.

With `CC1Oc2cc(N3CCCC3=O)ccc2-c2cnc(Nc3cncc(NC(=O)c4cccc5nccn45)c3)cc21` (stereo not drawn) [Example 146, N-(5-((5-methyl-8-(2-oxopyrrolidin-1-yl)-5H-chromeno[4,3-c]pyridin-3-yl)amino)pyridin-3-yl)imidazo[1,2-a]pyridine-5-carboxamide] the IC50 (PIP4K2B) was 1 to 10 nM and the IC50 (PIP4K 2A) was ≤ 1 nM.

`O=C1CCCN1c1cc2c(cc1F)-c1cnc(Nc3cnc4c(c3)OCCO4)cc1CO2` [Example 165, 1-(3-((2,3-dihydro-[1,4]dioxino[2,3-b]pyridin-7-yl)amino)-9-fluoro-5H-chromeno[4,3-c]pyridin-8-yl)pyrrolidin-2-one] was tested, and the IC50 (PIP4K2B) was 10 to 100 nM and the IC50 (PIP4K 2A) was 10 to 100 nM.

`CNC(=O)Nc1cncc(Nc2cc3c(cn2)-c2ccc(N4CCCC4=O)cc2OC3C)c1` (stereo not drawn) [Example 99, 1-methyl-3-(5-((5-methyl-8-(2-oxopyrrolidin-1-yl)-5H-chromeno[4,3-c]pyridin-3-yl)amino)pyridin-3-yl)urea] showed an IC50 (PIP4K2B) of 10 to 100 nM and an IC50 (PIP4K 2A) of 1 to 10 nM.

With `CC1Oc2cc(N3CCCC3=O)ccc2-c2cnc(Nc3cnc4c(c3)N3C(=O)[C@](C)(O)C[C@H]3CO4)cc21` (stereo partly drawn) [Example 205, (6aS,8R)-8-hydroxy-8-methyl-2-((5-methyl-8-(2-oxopyrrolidin-1-yl)-5H-chromeno[4,3-c]pyridin-3-yl)amino)-6,6a,7,8-tetrahydro-9H-pyrido[2,3-b]pyrrolo[1,2-d][1,4]oxazin-9-one] the IC50 (PIP4K2B) was 10 to 100 nM and the IC50 (PIP4K 2A) was 10 to 100 nM.

`CC1Oc2cc(N3CCCC3=O)ccc2-c2cnc(Nc3cncc(NC(=O)c4cncc(N)n4)c3)cc21` (stereo not drawn) [Example 126, 6-amino-N-(5-((5-methyl-8-(2-oxopyrrolidin-1-yl)-5H-chromeno[4,3-c]pyridin-3-yl)amino)pyridin-3-yl)pyrazine-2-carboxamide] was tested, and the IC50 (PIP4K2B) was 10 to 100 nM and the IC50 (PIP4K 2A) was 1 to 10 nM.

With `CC1Oc2cc(N3CCCC3=O)ccc2-c2cnc(Nc3cnc4c(c3)N3C(=O)C(O)C[C@H]3CO4)cc21` (stereo partly drawn) [Example 206, (6aS)-8-hydroxy-2-((5-methyl-8-(2-oxopyrrolidin-1-yl)-5H-chromeno[4,3-c]pyridin-3-yl)amino)-6,6a,7,8-tetrahydro-9H-pyrido[2,3-b]pyrrolo[1,2-d][1,4]oxazin-9-one] the IC50 (PIP4K2B) was 1 to 10 nM and the IC50 (PIP4K 2A) was ≤ 1 nM.
